Data taken from ChEMBL document CHEMBL1201862, “PubChem BioAssay data set” (2004).
Where a name gives a salt, the structure may show the parent alone. Activity calls are given as the source filed them.

Tests used:
Paired box protein Pax-8 = Paired box protein Pax-8 (Homo sapiens, UniProt Q06710); test: PAX8 transcriptional activity inhibition in RMG-I – RMG-I cells, luciferase, cherry-pick, dose response (AID 687027); format: functional, cell-based;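 further: luciferase reporter driven by Pax8 target thyroperoxidase promoter measured by SteadyGlo luminescence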
Sequence of Paired box protein Pax-8 (Q06710 whole entry): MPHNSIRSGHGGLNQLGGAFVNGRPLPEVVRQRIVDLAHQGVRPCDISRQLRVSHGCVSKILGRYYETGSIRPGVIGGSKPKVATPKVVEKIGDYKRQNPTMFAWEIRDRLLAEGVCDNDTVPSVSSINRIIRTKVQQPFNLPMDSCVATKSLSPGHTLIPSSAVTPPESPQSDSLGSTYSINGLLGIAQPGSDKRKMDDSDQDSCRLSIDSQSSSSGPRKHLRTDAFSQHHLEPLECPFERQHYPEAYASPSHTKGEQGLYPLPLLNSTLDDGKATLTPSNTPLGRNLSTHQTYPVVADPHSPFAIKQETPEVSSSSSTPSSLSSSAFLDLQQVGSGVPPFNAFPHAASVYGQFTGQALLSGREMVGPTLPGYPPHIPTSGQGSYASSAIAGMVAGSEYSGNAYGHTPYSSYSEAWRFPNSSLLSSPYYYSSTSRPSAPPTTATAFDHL

[1] = OVCAR8 cell viability loss – plate reader, dry powder samples, PAX8 project, dose response (AID 743197); format: functional, cell-based; settings: OVCAR-8
[2] = general cell-killing toxicity readout – plate reader, dry powder samples, cytotoxicity control for PAX8 inhibitor project, dose response (AID 743021); format: functional, cell-based
[3] = OVCAR-3 cell viability loss – plate reader, dry powder samples, PAX8 inhibitor project, dose response (AID 743044); format: functional, cell-based
Genome polyprotein = Genome polyprotein (dengue virus type 2, UniProt P29990); test: flavivirus cap methylation enzyme inhibition – biochemical, confirmation dose response, primary screen (AID 588689); format: functional
Sequence of Genome polyprotein (P29990 2492-3391 limits assumed): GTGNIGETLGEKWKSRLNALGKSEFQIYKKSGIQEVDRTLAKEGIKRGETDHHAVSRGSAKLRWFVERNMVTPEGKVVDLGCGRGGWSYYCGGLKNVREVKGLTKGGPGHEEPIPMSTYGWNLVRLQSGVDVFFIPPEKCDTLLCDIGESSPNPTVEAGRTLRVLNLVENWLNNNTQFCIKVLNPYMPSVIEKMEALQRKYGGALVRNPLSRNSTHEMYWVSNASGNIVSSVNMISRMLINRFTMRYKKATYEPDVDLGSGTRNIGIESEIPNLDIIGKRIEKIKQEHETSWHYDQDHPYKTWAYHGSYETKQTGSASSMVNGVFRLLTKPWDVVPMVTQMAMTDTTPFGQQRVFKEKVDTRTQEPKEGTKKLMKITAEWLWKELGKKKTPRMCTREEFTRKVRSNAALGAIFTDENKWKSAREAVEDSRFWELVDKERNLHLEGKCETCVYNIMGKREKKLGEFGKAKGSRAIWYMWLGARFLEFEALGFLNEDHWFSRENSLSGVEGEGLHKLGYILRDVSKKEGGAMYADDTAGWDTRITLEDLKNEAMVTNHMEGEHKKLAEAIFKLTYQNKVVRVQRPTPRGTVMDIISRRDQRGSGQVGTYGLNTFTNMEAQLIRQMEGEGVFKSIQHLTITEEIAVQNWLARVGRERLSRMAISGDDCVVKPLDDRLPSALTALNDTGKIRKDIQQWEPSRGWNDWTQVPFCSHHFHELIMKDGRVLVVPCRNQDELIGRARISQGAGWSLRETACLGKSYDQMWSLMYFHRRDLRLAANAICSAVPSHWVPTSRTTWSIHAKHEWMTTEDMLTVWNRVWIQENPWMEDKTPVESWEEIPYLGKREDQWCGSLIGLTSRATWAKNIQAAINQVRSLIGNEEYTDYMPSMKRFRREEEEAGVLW

[4] = molecular target: Glucose-6-phosphate 1-dehydrogenase (Homo sapiens, UniProt P11413); test: inhibition of Homo sapiens G6PD, dose series – biochemical, fluorescence, selectivity assay for P. falciparum G6PD inhibitor project, dose response (AID 504792); format: functional
Sequence of Glucose-6-phosphate 1-dehydrogenase (P11413 whole entry): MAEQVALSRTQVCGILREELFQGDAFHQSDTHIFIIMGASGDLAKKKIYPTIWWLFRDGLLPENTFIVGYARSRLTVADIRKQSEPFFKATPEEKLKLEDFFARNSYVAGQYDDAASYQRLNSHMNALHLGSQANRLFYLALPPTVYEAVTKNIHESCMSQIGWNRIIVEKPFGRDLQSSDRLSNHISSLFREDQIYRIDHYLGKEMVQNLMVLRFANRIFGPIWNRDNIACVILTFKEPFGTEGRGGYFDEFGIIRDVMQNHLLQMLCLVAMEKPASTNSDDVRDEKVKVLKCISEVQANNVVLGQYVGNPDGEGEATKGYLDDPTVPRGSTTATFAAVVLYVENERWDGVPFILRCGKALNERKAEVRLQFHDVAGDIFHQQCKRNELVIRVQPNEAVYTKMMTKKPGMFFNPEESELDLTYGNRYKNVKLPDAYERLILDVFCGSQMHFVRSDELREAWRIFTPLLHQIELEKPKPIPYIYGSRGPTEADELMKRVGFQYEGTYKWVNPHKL

[5] = molecular target: T1, Apoptotic protease-activating factor 1 (Homo sapiens, UniProt O14727); format: functional
T1 sequence (O14727 whole entry): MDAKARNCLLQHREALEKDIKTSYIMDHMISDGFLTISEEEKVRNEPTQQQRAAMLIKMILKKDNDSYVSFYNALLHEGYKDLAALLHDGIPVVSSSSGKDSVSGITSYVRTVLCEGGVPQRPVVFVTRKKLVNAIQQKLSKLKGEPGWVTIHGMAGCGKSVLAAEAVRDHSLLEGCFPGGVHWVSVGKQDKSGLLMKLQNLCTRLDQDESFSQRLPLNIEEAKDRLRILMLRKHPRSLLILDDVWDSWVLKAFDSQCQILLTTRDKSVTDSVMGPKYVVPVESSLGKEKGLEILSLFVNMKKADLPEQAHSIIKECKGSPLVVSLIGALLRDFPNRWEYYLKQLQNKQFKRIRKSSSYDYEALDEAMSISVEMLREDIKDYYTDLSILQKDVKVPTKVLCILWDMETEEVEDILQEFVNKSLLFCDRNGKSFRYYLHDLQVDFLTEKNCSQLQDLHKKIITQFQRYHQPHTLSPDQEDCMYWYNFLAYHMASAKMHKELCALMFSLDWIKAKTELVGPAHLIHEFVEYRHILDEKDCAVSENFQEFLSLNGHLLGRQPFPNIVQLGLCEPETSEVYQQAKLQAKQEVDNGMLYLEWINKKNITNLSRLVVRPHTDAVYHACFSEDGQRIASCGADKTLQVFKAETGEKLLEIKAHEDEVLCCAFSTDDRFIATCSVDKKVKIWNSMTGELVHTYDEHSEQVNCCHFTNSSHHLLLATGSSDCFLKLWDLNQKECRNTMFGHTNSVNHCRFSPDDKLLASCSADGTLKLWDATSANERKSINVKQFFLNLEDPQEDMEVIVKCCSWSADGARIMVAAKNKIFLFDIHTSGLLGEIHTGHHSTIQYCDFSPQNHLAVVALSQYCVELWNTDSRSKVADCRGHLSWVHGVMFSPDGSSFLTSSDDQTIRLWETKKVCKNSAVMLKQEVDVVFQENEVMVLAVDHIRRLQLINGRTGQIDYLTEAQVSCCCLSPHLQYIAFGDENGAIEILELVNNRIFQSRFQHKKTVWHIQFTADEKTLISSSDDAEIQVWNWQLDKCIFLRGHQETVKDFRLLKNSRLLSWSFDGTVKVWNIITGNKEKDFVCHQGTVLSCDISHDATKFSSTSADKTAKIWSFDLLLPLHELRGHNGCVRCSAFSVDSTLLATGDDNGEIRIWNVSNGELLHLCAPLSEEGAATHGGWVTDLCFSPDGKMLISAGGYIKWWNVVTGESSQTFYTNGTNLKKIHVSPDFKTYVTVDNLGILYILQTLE

[6] = A High Throughput Confirmatory Assay used to Identify Novel Compounds that Inhibit Mycobacterium Tuberculosis in the absence of Glycerol.; format: functional
HEK293 = test: EBV LMP1 TES2 canonical NF-kB signalling blockers – cell-based, HEK293, luciferase, cherry-pick, dose response (AID 588343); format: functional; settings: Homo sapiens
[7] = loss of viability in HepG2 cells – cell-based, CellTiter-Glo, cherry-picked, cytotoxicity control for Shn3 inhibitor project, dose response (AID 624134); format: functional
[8] = reduction of Shn3 3'UTR-driven luciferase in osteoblasts – cell-based, Clone20 osteoblasts, firefly luciferase, cherry-picked, dose response (AID 624132); format: functional;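 further: firefly luciferase luminescence from reporter carrying the Shn3 3'UTR in osteoblasts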
[9] = non-specific 3'UTR reporter inhibition in Clone20-Shn3RL – cell-based, Renilla luciferase, cherry-picked, counter-screen for Shn3 inhibitor project, dose response (AID 624133); format: functional
[10] = HCT116 cell viability decrease, GSK3B pretreatment – CellTiter-Glo, IC50, dose response (AID 1117339); format: functional; settings: HCT-116
[11] = CellTiter-Glo luminescence survival assay, SW480 colon tumor line, concentration-response curve, half-maximal inhibitory concentration (AID 1117338); format: functional
[12] = RKO cell viability reduction, dose response, CellTiter-Glo luminescence (AID 1117322); format: functional
[13] = SNU-C1 cell viability reduction, dose response, CellTiter-Glo luminescence (AID 1117323); format: functional, cell-based
[14] = cytotoxicity toward HT-29 cells – cell-based, CellTiter-Glo luminescence, IC50, dose response (AID 1117330); format: functional
[15] = cytotoxicity toward Colo320 cells – cell-based, CellTiter-Glo luminescence, IC50, dose response (AID 1117334); format: functional; settings: COLO 320
[16] = cytotoxicity toward HCT116 cells – cell-based, CellTiter-Glo luminescence, IC50, dose response (AID 1117332); format: functional; settings: HCT-116
[17] = Reduced DLD-1 viability, concentration-response, CellTiter-Glo luminescence (AID 1117352); format: functional
[18] = Luminescence Cell-Based Dose Retest to Confirm Inhibitors of Cancer Stem Cells. [Related pubchem assays (depositor defined):AID2717, AID2721]; format: functional; settings: Homo sapiens

Compound: CC(C)CC#Cc1ccc2c(c1)O[C@H](CN(C)S(=O)(=O)c1ccc(F)cc1)[C@H](C)CN([C@H](C)CO)S2(=O)=O
- AC50 (Paired box protein Pax-8): 14.5 µM (active)
- AC50 [1]: 57.1 µM (active)
- AC50 [2]: 61.2 µM (active)
- AC50 [3]: 31.9 µM (active)

Compound: Cc1ccc(S(=O)(=O)Oc2ccccc2C=C2C(=O)N(C)C(=O)N(C)C2=O)cc1
- IC50 (Genome polyprotein): 37.8 µM (active)

Compound: C(=NNc1ccc2ccccc2n1)c1ccccn1
- AC50 (Paired box protein Pax-8): 2.95 µM (active)
- AC50 [2]: 58.9 µM (active)

Compound: CCOC(=O)c1c(C)n(-c2ccc(C)cc2)c2c(C(C(C)=O)C(=O)O)c(Br)c(O)c(O)c12 (centres undefined)
- IC50 [4]: 26.5 µM (inactive)
- IC50 [5]: 12.3 µM (active)

Compound: Nc1cc([N+](=O)[O-])cc2oc(-c3ccccc3)cc12
- IC50 [6]: > 100 µM (active)

Compound: COc1ccc(C(=O)Nc2ccc(N3CCN(C(=O)c4ccccc4C)CC3)cc2)cc1
- AC50 (HEK293): 4.67 µM (active)

Compound: CC(=O)C1(C)CCC2C3C=C(C)C4=CC(=O)CCC4(C)C3CCC21C (centres undefined)
- AC50 [7]: 45.2 µM (active)
- AC50 [8]: 9.83 µM (active)
- AC50 [9]: 29.1 µM (active)

Compound: CC(C)c1ccc(N2C(=O)C(Cl)=C(N3CCOCC3)C2=O)cc1
- IC50 (Genome polyprotein): 69.4 µM (active)

Compound: COCC(=O)N1CCC(Oc2ccc(C(=O)N3C[C@H]4CC[C@H]3C4)cc2)CC1
- AC50 (HEK293): > 350 µM (inactive)

Compound: CCC(C(=O)OCCOCCN(CC)CC)c1ccccc1 (centres undefined) [BUTAMIRATE CITRATE]
- IC50 [10]: > 20 µM (inactive)
- IC50 [11]: > 20 µM (inactive)
- IC50 [12]: > 20 µM (inactive)
- IC50 [13]: > 20 µM (inactive)
- IC50 [14]: > 20 µM (inactive)
- IC50 [15]: > 20 µM (inactive)
- IC50 [16]: > 20 µM (inactive)
- IC50 [17]: > 20 µM (inactive)

Compound: CCCSc1nnc(CSc2nc3ccccc3s2)n1-c1ccccc1
- AC50 [7]: > 70 µM (inactive)
- AC50 [18]: 2.8 µM (active)
- AC50 [8]: 7.05 µM (active)
- AC50 [9]: 22.7 µM (active)

Compound: COc1cc(/C=C2/SC(=S)N(CC(=O)O)C2=O)ccc1OC(=O)c1cccs1
- IC50 (Genome polyprotein): 88.3 µM (active)
